# Assay results taken from patent publication US7947312B2, “Method of preparation and composition of a water soluble extract of the bioactive component of the plant species Uncaria for enhancing immune, anti-inflammatory, anti-tumor and DNA repair processes of warm blooded animals” (priority 2002, dated 2011).
# Structures can show the parent of a compound that is named as a salt. Where two headings read alike, the source gives them in different places.
# Legend:
# [1] = tested on: mouse spleen cells activated with Con A or LPS; test: Proliferation of mitogen-stimulated mouse spleen cells (3[H]-thymidine incorporation); assay type: cell-based; settings: Con A 2.5 μg/ml or LPS 10 μg/ml, 48 hours
# Method: FIG. 4A illustrates spleen cells (2×10^5) that were activated with Con A (left; 2.5 μg/ml) or LPS (right; 10 μg/ml) in the presence of indicated concentrations of C-MED-100®, QAA or QA. Proliferation was assayed after 48 hours by ^3[H]-thymidine incorporation in triplicate cultures. Results from one representative experiment out of three are presented as mean values±S.D.
# (§1) Cell cultures: Raji human Burkitt's lymphoma (CCL-86), Jurkat human acute T-cell leukemia (TIB-152), 70Z/3 mouse pre-B lymphocyte cell line (TIB-158), or mouse spleen cells were used in the experiments. The cells were cultured in RPMI medium (Life Technologies) supplemented with 10% FCS, 10 mM HEPES buffer, antibiotics, 50 μM 2-mercaptoethanol and 1 mM sodium pyruvate (all supplements from Life Technologies) at 37° C., 5% CO2. The number of Raji cells in duplicate cultures were determined with a Coulter Z1 cell counter (Beckman Coulter Inc, Fullerton, Calif., USA) three times each. The number of viable and dead cells were determined using trypan blue exclusion, by counting three independent samples from duplicate cultures. […] Proliferation was detected by measuring thymidine incorporation after a 4 hours pulse with 1 μCi ^3[H]-thymidine (Amersham Pharmacia).
# HL-60 W6899 cells = test: HL-60 bioassay, microculture 5 days, clonogenicity estimated by MTT assay (Table 1); assay type: cell-based, human; settings: Homo sapiens, HL-60, parameters are approximations
# Method: An assay of biological activity of C-MED-100®'s active ingredient is prepared as follows: HL-60 […] cells are exposed in microculture at 5000 cells per well (96-well plates) for 5 days at 37 ? C. in a CO2 incubator. After incubation, the cells are washed with saline and clonogenicity estimated by MTT assay.
# Jurkat T cells = test: Jurkat T cell death and apoptosis (Annexin V / 7AAD); assay type: cell-based, human; settings: 24 hours, concentrations inhibiting NF-κB
# Method: FIG. 5A illustrates Jurkat T that are cells transfected with a NF-κB reporter construct were pre-cultured with various concentrations of QA or C-MED-100® for two hours. PMA (50 ng/ml) and ionomycin (1 μM) were thereafter added and the cells incubated for another six hours. The mean induction of luciferase activity in triplicate cultures from one representative experiment out of four are shown (left panel). QA induced no cell death or apoptosis in Jurkat T cells at concentrations which inhibited NF-κB activity. Jurkat T cells were incubated with various concentrations of QA for 24 hours and thereafter stained with Annexin V and 7AAD before analysis by flow cytometry. […]
# as §1, with “The cells were cultured in RPMI medium (Life Technologies) supplemented with 10% FCS, 10 mM HEPES buffer, antibiotics, 50 μM 2-mercaptoethanol and 1 mM sodium pyruvate (all supplements from Life Technologies) at 37° C., 5% CO2.” left out
# [2] = tested on: NF-κB dependent Igκ-chain expression in 70Z/3 cells; test: LPS-induced Igκ-chain expression in 70Z/3 cells (flow cytometry, 7AAD); assay type: cell-based
# Method: FIG. 5B illustrates 70Z/3 cells (2×10^5) that were pretreated for 4 h with C-MED-100® or QA before activation for 20 h with LPS (25 μg/ml). The cells were thereafter stained with 7AAD and Igκ-antibodies and analyzed by flow cytometry. The results are mean Igκ-positive cells±S.D. (left panel) and mean 7AAD negative cells±S.D. (right panel) of duplicate cultures from one representative experiment out of two performed.
# as §1
Structure (SMILES),proliferation of mitogen-stimulated mouse lymphocytes [1],"IC50 (HL-60 W6899 cells; after 1% aqueous ammonia, read-out: Bioassay after 1% aqueous ammonia IC50 HL-60 cells) [µg/mL]",IC50 (HL-60 W6899 cells; read-out: Bioassay efficacy using IC50 in HL-60 cells) [µg/mL],cell death in Jurkat T cells (Jurkat T cells),cell death in 70Z/3 cells (7AAD) [2],"LPS-induced Igκ-chain expression ([2]; 70Z/3 cells, 4 h pretreatment, LPS 25 μg/ml 20 h)"
"O=C(O)[C@]1(O)C[C@@H](O)[C@@H](O)[C@H](O)C1 [QAA, quinic acid ammonium salt]",inhibited cell proliferation in a dose dependent manner,–,–,–,–,–
"O=C(O)C1(O)CC(O)C(O)C(O)C1 (stereo not drawn) [QA, 1,3,4,5-tetrahydroxy-cyclohexanecarboxylic acid]",–,> 3000,> 3000,did not induce cell death,without causing cell death,inhibited Igκ-chain expression to a similar extent
